Reference: US10988477B2 (Merck Patent GmbH, priority 2018, dated 2021)

Columns and labels:
[1] = molecular target: intracellular GCN2 (phosphorylation of the GCN2 substrate eIF2α) (Homo sapiens, UniProt Q9P2K8); assay: GCN2 cellular inhibition assay (AlphaScreen SureFire P-eIF2α Ser51, borrelidin-treated U2OS cells); type: cell-based; conditions: compounds of Formula II; biomarker assay, phosphorylated eIF2α Ser51 in borrelidin-treated U2OS cells
Summary of the method: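 First, U2OS cells are plated and left overnight at 37 °C. Next, compounds (from 40 μM final, 4-fold steps) and 10 μM borrelidin are added for 1 h, cells lysed, and phospho-Ser51 eIF2α detected by AlphaScreen bead sandwich. Inhibition is computed versus borrelidin-only wells.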

GCN2 kinase = GCN2 kinase (Homo sapiens, UniProt Q9P2K8); assay: GCN2 enzyme inhibition assay (Transcreener ADP2 fluorescence polarization); type: biochemical; conditions: compounds of Formula II; 280 μM ATP, 4 nM GCN2 kinase
Chain of GCN2 kinase (Q9P2K8 whole entry): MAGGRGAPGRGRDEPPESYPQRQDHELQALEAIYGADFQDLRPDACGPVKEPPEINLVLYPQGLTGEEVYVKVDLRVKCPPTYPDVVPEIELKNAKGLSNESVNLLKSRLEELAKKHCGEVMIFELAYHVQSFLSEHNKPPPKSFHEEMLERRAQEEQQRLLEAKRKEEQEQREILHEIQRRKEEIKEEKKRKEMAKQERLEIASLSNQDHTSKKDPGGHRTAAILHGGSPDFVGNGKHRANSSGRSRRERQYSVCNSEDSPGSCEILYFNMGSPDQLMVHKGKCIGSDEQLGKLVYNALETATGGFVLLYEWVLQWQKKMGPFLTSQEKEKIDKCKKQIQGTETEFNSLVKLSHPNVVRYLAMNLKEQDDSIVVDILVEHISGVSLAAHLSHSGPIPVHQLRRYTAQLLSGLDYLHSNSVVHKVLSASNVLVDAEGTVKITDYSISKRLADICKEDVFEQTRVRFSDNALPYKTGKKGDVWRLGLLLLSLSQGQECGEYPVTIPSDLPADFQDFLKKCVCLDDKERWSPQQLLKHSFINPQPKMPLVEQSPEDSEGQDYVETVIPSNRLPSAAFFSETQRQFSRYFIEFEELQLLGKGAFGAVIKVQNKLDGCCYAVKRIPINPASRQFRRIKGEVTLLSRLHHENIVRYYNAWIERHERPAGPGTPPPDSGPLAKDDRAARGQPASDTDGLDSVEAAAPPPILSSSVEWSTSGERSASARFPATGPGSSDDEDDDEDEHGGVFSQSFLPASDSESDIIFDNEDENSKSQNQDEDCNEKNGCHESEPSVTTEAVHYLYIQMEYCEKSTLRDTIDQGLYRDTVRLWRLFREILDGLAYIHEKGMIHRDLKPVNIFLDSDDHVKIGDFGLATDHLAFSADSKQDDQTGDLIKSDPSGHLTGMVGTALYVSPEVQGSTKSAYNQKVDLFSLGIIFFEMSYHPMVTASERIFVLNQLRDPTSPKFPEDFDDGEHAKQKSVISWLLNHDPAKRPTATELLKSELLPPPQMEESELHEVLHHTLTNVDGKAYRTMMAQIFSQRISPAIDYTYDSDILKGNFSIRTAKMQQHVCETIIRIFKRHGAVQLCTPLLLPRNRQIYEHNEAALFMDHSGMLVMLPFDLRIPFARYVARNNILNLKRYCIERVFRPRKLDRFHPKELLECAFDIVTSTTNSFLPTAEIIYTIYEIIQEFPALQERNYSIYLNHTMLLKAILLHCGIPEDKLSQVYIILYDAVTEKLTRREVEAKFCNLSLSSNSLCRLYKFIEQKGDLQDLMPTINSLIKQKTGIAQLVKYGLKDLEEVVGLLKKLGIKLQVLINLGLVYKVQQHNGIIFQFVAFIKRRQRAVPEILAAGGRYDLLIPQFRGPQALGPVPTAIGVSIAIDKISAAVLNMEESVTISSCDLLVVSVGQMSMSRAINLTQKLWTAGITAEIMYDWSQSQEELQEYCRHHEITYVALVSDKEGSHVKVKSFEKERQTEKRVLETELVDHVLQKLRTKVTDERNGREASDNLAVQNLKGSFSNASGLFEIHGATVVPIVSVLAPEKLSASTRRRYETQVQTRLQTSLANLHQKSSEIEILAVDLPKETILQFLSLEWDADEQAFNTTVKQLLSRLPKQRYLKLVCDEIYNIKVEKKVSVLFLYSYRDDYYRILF
Summary of the method: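 Kinase activity is followed as ADP formation, measured by fluorescence polarization, using 4 nM enzyme with 280 μM ATP and 200 μM (RS)7 peptide at pH 7.5 and 25 °C for 1 h. Values come from a non-linear tight-binding fit.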

Chain of intracellular GCN2 (phosphorylation of the GCN2 substrate eIF2α) (Q9P2K8 whole entry): as above

IC50 [1] | Ki (GCN2 kinase) | IC50 (GCN2 kinase) | SMILES
> 5000 nM | 10 to 1000 nM | – | CC1CN(c2cc(-c3cnc4ccc(C(F)(F)F)nn34)ncn2)C(C)C(c2cn[nH]c2)N1 (stereo not shown) [II-704, 3-(6-(2,5-Dimethyl-3-(1H-pyrazol-4-yl)piperazin-1-yl)pyrimidin-4-yl)-6-(trifluoromethyl)imidazo[1,2-b]pyridazine]
< 500 nM | < 10 nM | – | CC1CN(c2cc(-c3cnc4ccc(C(F)(F)F)nn34)ncn2)C(C)C(c2cn[nH]c2)N1 (stereo not shown) [II-705, 3-(6-(2,5-Dimethyl-3-(1H-pyrazol-4-yl)piperazin-1-yl)pyrimidin-4-yl)-6-(trifluoromethyl)imidazo[1,2-b]pyridazine]
500 to 5000 nM | 10 to 1000 nM | – | CC1C(c2cn[nH]c2)NCCN1c1cc(-c2cnc3ccc(C(F)(F)F)nn23)ncn1 (stereo not shown) [II-706, 3-(6-(2-Methyl-3-(1H-pyrazol-4-yl)piperazin-1-yl)pyrimidin-4-yl)-6-(trifluoromethyl)imidazo[1,2-b]pyridazine]
> 5000 nM | 10 to 1000 nM | – | CC1NCCN(c2cc(-c3cnc4ccc(C(F)(F)F)nn34)ncn2)C1c1cn[nH]c1 (stereo not shown) [II-707, 3-(6-(3-Methyl-2-(1H-pyrazol-4-yl)piperazin-1-yl)pyrimidin-4-yl)-6-(trifluoromethyl)imidazo[1,2-b]pyridazine]
500 to 5000 nM | 10 to 1000 nM | – | FC(F)c1ccc2ncc(-c3cc(-c4cnn(C5CCOCC5)c4)ncn3)n2n1 [II-709, 6-(Difluoromethyl)-3-[6-(1-tetrahydropyran-4-ylpyrazol-4-yl)pyrimidin-4-yl]imidazo[1,2-b]pyridazine]
500 to 5000 nM | 10 to 1000 nM | – | CC1CC(P(C)(C)=O)CN(c2cc(-c3cnc4ccc(C(F)F)nn34)ncn2)C1 (stereo not shown) [II-710, 6-(Difluoromethyl)-3-[6-(3-dimethylphosphoryl-5-methyl-1-piperidyl)pyrimidin-4-yl]imidazo[1,2-b]pyridazine]
500 to 5000 nM | 10 to 1000 nM | – | CC1CC(P(C)(C)=O)CN(c2cc(-c3cnc4ccc(C(F)F)nn34)ncn2)C1 (stereo not shown) [II-711, 6-(Difluoromethyl)-3-[6-(3-dimethylphosphoryl-5-methyl-1-piperidyl)pyrimidin-4-yl]imidazo[1,2-b]pyridazine]
500 to 5000 nM | 10 to 1000 nM | – | FC(F)(F)c1ccc2ncc(-c3cc(N4CCCC(c5c[nH]cn5)C4)ncn3)n2n1 (stereo not shown) [II-715]
< 500 nM | < 10 nM | – | CC1CC(N=S(C)(C)=O)CN(c2cc(-c3cnc4ccc(C(F)F)nn34)ccn2)C1 (stereo not shown) [II-716, ((1-(4-(6-(Difluoromethyl)imidazo[1,2-b]pyridazin-3-yl)pyridin-2-yl)-5-methylpiperidin-3-yl)imino)dimethyl-λ^6-sulfanone]
500 to 5000 nM | 10 to 1000 nM | – | CC1CC(C(=O)O)C(C)N(c2cc(-c3cnc4ccc(C(F)(F)F)nn34)ncn2)C1 (stereo not shown) [II-721, 2,5-Dimethyl-1-[6-[6-(trifluoromethyl)imidazo[1,2-b]pyridazin-3-yl]pyrimidin-4-yl]piperidine-3-carboxylic acid]
> 5000 nM | 10 to 1000 nM | – | CC1CC(N=S(C)(C)=O)CN(c2cc(-c3cnc4ccc(C(N)=O)nn34)ncn2)C1 (stereo not shown) [II-726, 3-(6-(3-((Dimethyl(oxo)-λ^6-sulfanylidene)amino)-5-methylpiperidin-1-yl)pyrimidin-4-yl)imidazo[1,2-b]pyridazine-6-carboxamide]
> 5000 nM | 10 to 1000 nM | – | NC(=O)c1ccc2ncc(-c3cc(N4CCN5C(=O)CCCC5C4)ncn3)n2n1 (stereo not shown) [II-727, 3-[6-(6-Oxo-3,4,7,8,9,9a-hexahydro-1H-pyrido[1,2-a]pyrazin-2-yl)pyrimidin-4-yl]imidazo[1,2-b]pyridazine-6-carboxamide]
> 5000 nM | 10 to 1000 nM | – | CC1CN(c2cc(-c3cnc4ccc(C(N)=O)nn34)ncn2)C(C)C(c2cn[nH]c2)N1 (stereo not shown) [II-728, 3-[6-[2,5-Dimethyl-3-(1H-pyrazol-4-yl)piperazin-1-yl]pyrimidin-4-yl]imidazo[1,2-b]pyridazine-6-carboxamide]
500 to 5000 nM | < 10 nM | – | CS(=O)(=O)NCC1CCCN(c2cc(-c3cnc4ccc(C(F)F)nn34)c(F)cn2)C1 (stereo not shown) [II-729, N-((1-(4-(6-(Difluoromethyl)imidazo[1,2-b]pyridazin-3-yl)-5-fluoropyridin-2-yl)piperidin-3-yl)methyl)methanesulfonamide]
500 to 5000 nM | 10 to 1000 nM | – | CS(=O)(=O)NCC1CCCN(c2cc(-c3cnc4ccc(C(F)F)nn34)c(Cl)cn2)C1 (stereo not shown) [II-730, N-((1-(5-Chloro-4-(6-(difluoromethyl)imidazo[1,2-b]pyridazin-3-yl)pyridin-2-yl)piperidin-3-yl)methyl)methanesulfonamide]
> 5000 nM | > 1000 nM | – | CC(=O)N1CCN(c2cccc(-c3cnc4ccc(C(F)F)nn34)n2)CC1 [II-731, 1-(4-(6-(6-(difluoromethyl)imidazo[1,2-b]pyridazin-3-yl)pyridin-2-yl)piperazin-1-yl)ethan-1-one]

IC50 [1] | Ki (GCN2 kinase) | IC50 (GCN2 kinase) | SMILES
> 5000 nM | > 1000 nM | – | CS(=O)(=O)NCC1CN(c2cc(-c3cnc4cccnn34)ccn2)CCO1 (stereo not shown) [II-732, N-((4-(4-(imidazo[1,2-b]pyridazin-3-yl)pyridin-2-yl)morpholin-2-yl)methyl)methanesulfonamide]
> 5000 nM | > 1000 nM | – | Cc1cnc(N2CCCC(CNS(C)(=O)=O)C2)cc1-c1cnc2ccc(C(F)F)nn12 (stereo not shown) [II-733, N-((1-(4-(6-(difluoromethyl)imidazo[1,2-b]pyridazin-3-yl)-5-methylpyridin-2-yl)piperidin-3-yl)methyl)methanesulfonamide]
> 5000 nM | > 1000 nM | – | CC(=O)NC1CCN(c2cc(-c3cnc4ccc(-c5cccnc5)nn34)ccn2)CC1 [II-735, N-(1-(4-(6-(pyridin-3-yl)imidazo[1,2-b]pyridazin-3-yl)pyridin-2-yl)piperidin-4-yl)acetamide]
> 5000 nM | > 1000 nM | – | CC(=O)N1CCN(c2cc(-c3cnc4ccc(N5CCC(N)C5)nn34)ccn2)CC1 (stereo not shown) [II-736, 1-(4-(4-(6-(3-aminopyrrolidin-1-yl)imidazo[1,2-b]pyridazin-3-yl)pyridin-2-yl)piperazin-1-yl)ethan-1-one]
> 5000 nM | > 1000 nM | – | CC(=O)N1CCN(c2cc(-c3cnc4ccc(-c5cccnc5)nn34)ccn2)CC1 [II-737, 1-(4-(4-(6-(pyridin-3-yl)imidazo[1,2-b]pyridazin-3-yl)pyridin-2-yl)piperazin-1-yl)ethan-1-one]
> 5000 nM | > 1000 nM | – | CC(=O)N1CCN(c2cc(-c3cnc4ccc(N5CCOCC5)nn34)ccn2)CC1 [II-738, 1-(4-(4-(6-morpholinoimidazo[1,2-b]pyridazin-3-yl)pyridin-2-yl)piperazin-1-yl)ethan-1-one]
< 500 nM | 10 to 1000 nM | – | Cc1noc([C@@H]2CN(c3cc(-c4cnc5ccc(C(F)(F)F)nn45)ccn3)C[C@H](C)O2)n1 [II-739]
< 500 nM | < 10 nM | – | FC(F)(F)c1ccc2ncc(-c3ccnc(N4CCCC(c5c[nH]cn5)C4)c3)n2n1 (stereo not shown) [II-740]
< 500 nM | < 10 nM | – | FC(F)(F)c1ccc2ncc(-c3ccnc(N4CCCC(c5c[nH]cn5)C4)c3)n2n1 (stereo not shown) [II-741]
500 to 5000 nM | – | 10 to 1000 nM | C[C@@H]1[C@H](CNS(C)(=O)=O)N(C2CC2)CCN1c1cc(-c2cnc3ccc(C(F)F)nn23)ncn1 [II-753, N-(((2S,3R)-1-cyclopropyl-4-(6-(6-(difluoromethyl)imidazo[1,2-b]pyridazin-3-yl)pyrimidin-4-yl)-3-methylpiperazin-2-yl)methyl)methanesulfonamide]
< 500 nM | – | 10 to 1000 nM | CC1CC(N=S(C)(C)=O)CN(c2cc(-c3cnc4ccc(C(F)(F)F)nn34)ncn2)C1 (stereo not shown) [II-757, dimethyl((5-methyl-1-(6-(6-(trifluoromethyl)imidazo[1,2-b]pyridazin-3-yl)pyrimidin-4-yl)piperidin-3-yl)imino)-16-sulfanone]
> 5000 nM | – | 10 to 1000 nM | Cc1nn(C)cc1[C@@H]1CN(c2cc(-c3cnc4ccc(C(F)(F)F)nn34)ncn2)C[C@H](C)O1 [II-759, (2R,6S)-2-(1,3-dimethyl-1H-pyrazol-4-yl)-6-methyl-4-(6-(6-(trifluoromethyl)imidazo[1,2-b]pyridazin-3-yl)pyrimidin-4-yl)morpholine]
500 to 5000 nM | – | 10 to 1000 nM | Cc1[nH]ncc1C1CN(c2cc(-c3cnc4ccc(C(F)(F)F)nn34)ncn2)CC(C)O1 (stereo not shown) [II-762, 2-methyl-6-(5-methyl-1H-pyrazol-4-yl)-4-(6-(6-(trifluoromethyl)imidazo[1,2-b]pyridazin-3-yl)pyrimidin-4-yl)morpholine]
> 5000 nM | – | 10 to 1000 nM | Cc1[nH]ncc1[C@H]1CN(c2cc(-c3cnc4ccc(C(F)(F)F)nn34)ncn2)C[C@H](C)O1 [II-765, (2S,6S)-2-methyl-6-(5-methyl-1H-pyrazol-4-yl)-4-(6-(6-(trifluoromethyl)imidazo[1,2-b]pyridazin-3-yl)pyrimidin-4-yl)morpholine]
> 5000 nM | – | 10 to 1000 nM | Cc1[nH]ncc1[C@@H]1CN(c2cc(-c3cnc4ccc(C(F)(F)F)nn34)ncn2)C[C@@H](C)O1 [II-766, (2R,6R)-2-methyl-6-(5-methyl-1H-pyrazol-4-yl)-4-(6-(6-(trifluoromethyl)imidazo[1,2-b]pyridazin-3-yl)pyrimidin-4-yl)morpholine]
< 500 nM | – | 10 to 1000 nM | Cc1[nH]ncc1[C@@H]1CN(c2cc(-c3cnc4ccc(C(F)(F)F)nn34)ncn2)C[C@H](C)O1 [II-767, (2S,6R)-2-methyl-6-(5-methyl-1H-pyrazol-4-yl)-4-(6-(6-(trifluoromethyl)imidazo[1,2-b]pyridazin-3-yl)pyrimidin-4-yl)morpholine]
